From ChEMBL document CHEMBL1128772, “Methylenedioxyphenyl substituted compounds from Piper species as inhibitors of liver microsome-mediated aflatoxin B1-DNA binding in vitro” (Bioorg Med Chem Lett, 1995)

What was measured:
Nucleic Acid [1] = experiment: In vitro binding affinity to rat liver microsome-mediated AFB1-DNA using [3H]- AFB1 radioligand assay at concentration of 10 uM; assay type: microsomes
Nucleic Acid [2] = experiment: In vitro binding affinity to rat liver microsome-mediated AFB1-DNA using [3H]- AFB1 radioligand assay at concentration of 100 uM; assay type: microsomes
Nucleic Acid [3] = experiment: In vitro binding affinity to rat liver microsome-mediated AFB1-DNA using [3H]- AFB1 radioligand assay at concentration of 50 uM
Nucleic Acid [4] = experiment: Tested in vitro for inhibition of rat liver microsome-mediated AFB1-DNA at concentration of 10 uM; assay type: microsomes
Nucleic Acid [5] = experiment: Tested in vitro for inhibition of rat liver microsome-mediated AFB1-DNA at concentration of 100 uM; assay type: microsomes
Nucleic Acid [6] = experiment: Tested in vitro for inhibition of rat liver microsome-mediated AFB1-DNA at concentration of 50 uM; assay type: microsomes

Structure (SMILES)	Binding (pM 30min-1 (mg of DNA)-1) (Nucleic Acid [1])	Binding (pM 30min-1 (mg of DNA)-1) (Nucleic Acid [2])	Binding (pM 30min-1 (mg of DNA)-1) (Nucleic Acid [3])	inhibition (Nucleic Acid [4]) [%]	inhibition (Nucleic Acid [5]) [%]	inhibition (Nucleic Acid [6]) [%]
C=CCC1=C[C@]2(OC)[C@H](C)[C@@H](c3ccc4c(c3)OCO4)O[C@]2(OC)CC1=O	127	108	110	9	23	21
C=CCC1=C[C@@](OC)([C@H](C)Cc2ccc3c(c2)OCO3)C(OC)=CC1=O	124	122	123	11	13	12
C=CCC1=C[C@]2(OC)[C@H](C)[C@@H](c3ccc4c(c3)OCO4)O[C@]2(OC)C[C@@H]1O	91	24.8	48	31	81	64
COC(=O)/C=C/C=C/c1ccc2c(c1)OCO2	110	50.7	76	16	61	42
c1cc2c(cc1[C@H]1OC[C@H]3[C@@H]1CO[C@H]3c1ccc3c(c1)OCO3)OCO2	105	68.2	76.5	21	48	42
O=C(/C=C/C=C/c1ccc2c(c1)OCO2)N1CCCCC1	96.6	56.6	70	27	57	47
